# According to US20040191287A1, “Fumigation process for stored food grains” (priority 2003, published 2004):
# Read-outs that look alike come from different tables or passages of the source.
# System: R. dominica mixed-age cultures
# Experiment: Fumigation in 125 litre plastic drums with 100 kg wheat, with/without perforated tubing (Example 6)
# Format: in vivo, Rhyzopertha dominica
# Conditions: for Insect Survivors / mortality at 200 µg/mL: R. dominica, 200 mg/liter, 72 hours, 26 ± 2° C., 125 liter drum, 100 kg wheat; for mortality at 200 µg/mL: 72 h, read-out: % mortality based on survivors in untreated controls
# Description: In another set of experiments, fumigations were carried out in the plastic drums with 100 kg […] acetate (27 ml of liquid) was dispensed at one location, that is, on the top layer of the grain. In both sets of experiments, there were 3 replicates for control and fumigated batches.
# Insect mortality in fumigated batches was determined by taking into consideration of survivors in respective controls as 100%.
structure (smiles),measurement,setting,value
C=CCOC(C)=O [allyl acetate],Insect Survivors,"with perforated tubing, test insect bag at bottom layer",0
same,Insect Survivors,"with perforated tubing, test insect bag at middle layer",0
same,Insect Survivors,"with perforated tubing, test insect bag at top layer",0
same,Insect Survivors,"without perforated tubing, test insect bag at bottom layer",0.67
same,Insect Survivors,"without perforated tubing, test insect bag at middle layer",0
same,Insect Survivors,"without perforated tubing, test insect bag at top layer",0
same,mortality at 200 µg/mL,"Rhyzopertha dominica, with perforated tubing, bottom layer",100%
same,mortality at 200 µg/mL,"Rhyzopertha dominica, with perforated tubing, middle layer",100%
same,mortality at 200 µg/mL,"Rhyzopertha dominica, with perforated tubing, top layer",100%
same,mortality at 200 µg/mL,"Rhyzopertha dominica, without perforated tubing, bottom layer",99.6%
same,mortality at 200 µg/mL,"Rhyzopertha dominica, without perforated tubing, middle layer",100%
same,mortality at 200 µg/mL,"Rhyzopertha dominica, without perforated tubing, top layer",100%
same,dosage for 100% kill of all stages,"Rhyzopertha dominica, all stages, preferred exposure period 72 hours",200 mg per litre of space
